Reference: patent US20120016019A1, “PHARMACEUTICAL COMPOSITION FOR TREATING OR PREVENTING CANCER” (priority 2010, published 2012)
Several values for one entry are separate records, joined by “and”; a condition that tells them apart may be missing. Equal entries are not always repeated. Where two headings read alike, the source gives them in different places.

Assays:
C-6 = system: C-6
Procedure: (§1) Cancer cell lines HCC 1419, MCF-7, MDA-MB-468, SKBR3, PC3, HT1299, Saos-2, C-6, AsPc, MDA-MB-231, RKO, HeLa and TT, and normal cell lines HME 50 HT, BJ and CCD-1074sk were tested for changes in metabolism (XTT assay) and cell death (cell counts).
(§2) Cells were plated into 48-well Corning CellBind™ plates at densities of 20,000 cells for normal cells and 10,000˜20,000 cells for cancer cells. 24 to 48 h after plating, cells were treated with the composition according to the invention at concentrations of 4.5e-2M. The first time point treated with the composition of the invention is 0 h. At 3 days after the first treatment with the composition of the invention, medium was changed and the composition of the invention at the same concentrations were added to the cultured cells.
(§3) The XTT assay is an accepted analysis technique for viability and cytotoxicity of anticancer drugs or other pharmaceutical compositions. Cells were seeded in a 96-well tissue culture plate at a density of 10,000 cells for normal cells and 5,000 cells for cancer cells. After incubation period, the formazan dye formed was quantitated using an ELISA reader. The optimal wavelength used in experiments was 500 nm, and it was measured at 0 h, 12 h, 24 h, 48 h, 4 d and 7 d, respectively. The obtained values were generated using the software SoftMax Pro 4.8.
(§4) The cell viability was calculated according to the manufacturer's instructions as follows (the term “blank” means XTT in medium only):
(§5) Cellular cytotoxicity was calculated according to the manufacturer's instructions as follows: […]

HT 1299 = settings: for The cytotoxicity / The viability: 220 nM; for The absorbance / The absorbance, Mean value / The absorbance, group - Blank: HT 1299
Procedure: as §1, §2, §3, §4, §5

SKBR3 = settings: for The absorbance, Mean value / The absorbance, group - Blank / The absorbance: SKBR3, XTT 500 nm; for The absorbance: single wells
Procedure: as §1, §2, §3, §4, §5

[1] = XTT 500 nm, 2nd week (recovery), 0 h
[2] = XTT 500 nm, 2nd week (recovery), 24 h
[3] = XTT 500 nm, 2nd week (recovery), 48 h
[4] = XTT 500 nm, 2nd week (recovery), 4 d

Compound: CC(=O)O[C@H]1C(=O)[C@@]2(C)[C@H]([C@H](OC(=O)c3ccccc3)[C@]3(O)C[C@H](OC(=O)[C@H](O)[C@@H](NC(=O)c4ccccc4)c4ccccc4)C(C)=C1C3(C)C)[C@]1(OC(C)=O)CO[C@@H]1C[C@@H]2O [Taxol]
- The absorbance (C-6; C-6, 1st week (LC50), 0 h): 2.6477 and 2.6197 and 2.482
- The absorbance, Mean value (C-6; C-6, 1st week (LC50), 0 h): 2.5831
- The absorbance, group - Blank (C-6; C-6, 1st week (LC50), 0 h): 2.0608
- The absorbance (C-6; C-6, 1st week (LC50), 12 h): 2.851 and 2.8475 and 2.6595
- The absorbance, Mean value (C-6; C-6, 1st week (LC50), 12 h): 2.7860
- The absorbance, group - Blank (C-6; C-6, 1st week (LC50), 12 h): 2.2637
- The absorbance (C-6; C-6, 1st week (LC50), 24 h): 2.6263 and 2.6408 and 2.7106
- The absorbance, Mean value (C-6; C-6, 1st week (LC50), 24 h): 2.6592
- The absorbance, group - Blank (C-6; C-6, 1st week (LC50), 24 h): 2.1369
- The absorbance (C-6; C-6, 1st week (LC50), 48 h): 2.5907 and 2.3173 and 2.5122
- The absorbance, Mean value (C-6; C-6, 1st week (LC50), 48 h): 2.4734
- The absorbance, group - Blank (C-6; C-6, 1st week (LC50), 48 h): 1.9511
- The absorbance (C-6; C-6, 1st week (LC50), 4 d): 3.4031 and 2.4181 and 2.3613
- The absorbance, Mean value (C-6; C-6, 1st week (LC50), 4 d): 2.7275
- The absorbance, group - Blank (C-6; C-6, 1st week (LC50), 4 d): 2.2052
- The absorbance (C-6; C-6, 1st week (LC50), 7 d): 2.334 and 2.3441 and 2.3017
- The absorbance, Mean value (C-6; C-6, 1st week (LC50), 7 d): 2.3266
- The absorbance, group - Blank (C-6; C-6, 1st week (LC50), 7 d): 1.8043
- The absorbance (C-6; C-6, 2nd week (recovery), 0 h): 2.7171 and 2.4409 and 2.6926
- The absorbance, Mean value (C-6; C-6, 2nd week (recovery), 0 h): 2.6169
- The absorbance, group - Blank (C-6; C-6, 2nd week (recovery), 0 h): 2.0945
- The absorbance (C-6; C-6, 2nd week (recovery), 24 h): 1.9908 and 2.3106 and 2.2634
- The absorbance, Mean value (C-6; C-6, 2nd week (recovery), 24 h): 2.1883
- The absorbance, group - Blank (C-6; C-6, 2nd week (recovery), 24 h): 1.6659
- The absorbance (C-6; C-6, 2nd week (recovery), 48 h): 3.111 and 2.4572 and 2.7053
- The absorbance, Mean value (C-6; C-6, 2nd week (recovery), 48 h): 2.7578
- The absorbance, group - Blank (C-6; C-6, 2nd week (recovery), 48 h): 2.2355
- The absorbance (C-6; C-6, 2nd week (recovery), 4 d): 2.6888 and 2.7862 and 2.8075
- The absorbance, Mean value (C-6; C-6, 2nd week (recovery), 4 d): 2.7608
- The absorbance, group - Blank (C-6; C-6, 2nd week (recovery), 4 d): 2.2385
- The viability (C-6; C-6, 2nd week (recovery), 4 d): 0.8937
- The absorbance (C-6; C-6, 2nd week (recovery), 7 d): 2.4639 and 2.1497 and 2.4909
- The absorbance, Mean value (C-6; C-6, 2nd week (recovery), 7 d): 2.3682
- The absorbance, group - Blank (C-6; C-6, 2nd week (recovery), 7 d): 1.8458
- The cytotoxicity (C-6; rat, 12 h, 220 nM): 0.1898
- The viability (C-6; rat, 12 h, 220 nM): 0.8102
- The viability (C-6; rat, 4 d, 220 nM): 0.8804
- The cytotoxicity (HT 1299; 0 h): 0.0206
- The viability (HT 1299; 0 h): 0.9794
- The cytotoxicity (HT 1299; 12 h): 0.0709
- The viability (HT 1299; 12 h): 0.9291
- The cytotoxicity (HT 1299; 24 h): 0.0409
- The viability (HT 1299; 24 h): 0.9591
- The cytotoxicity (HT 1299; 48 h): 0.0368
- The viability (HT 1299; 48 h): 0.9632
- The viability (HT 1299; 4 d): 0.8406
- The viability (HT 1299; 7 d): 0.3389
- The absorbance (HT 1299; 1st week (LC50), 0 h): 2.7643 and 2.716 and 2.6703
- The absorbance, Mean value (HT 1299; 1st week (LC50), 0 h): 2.7169
- The absorbance, group - Blank (HT 1299; 1st week (LC50), 0 h): 2.5063
- The absorbance (HT 1299; 1st week (LC50), 12 h): 2.8939 and 2.8933 and 2.8787
- The absorbance, Mean value (HT 1299; 1st week (LC50), 12 h): 2.8886
- The absorbance, group - Blank (HT 1299; 1st week (LC50), 12 h): 2.6781
- The absorbance (HT 1299; 1st week (LC50), 24 h): 2.7759 and 2.8539 and 2.8128
- The absorbance, Mean value (HT 1299; 1st week (LC50), 24 h): 2.8142
- The absorbance, group - Blank (HT 1299; 1st week (LC50), 24 h): 2.6036
- The absorbance (HT 1299; 1st week (LC50), 48 h): 2.5408 and 2.6225 and 2.6333
- The absorbance, Mean value (HT 1299; 1st week (LC50), 48 h): 2.5989
- The absorbance, group - Blank (HT 1299; 1st week (LC50), 48 h): 2.3883
- The absorbance (HT 1299; 1st week (LC50), 4 d): 2.817 and 2.6791 and 2.5786
- The absorbance, Mean value (HT 1299; 1st week (LC50), 4 d): 2.6916
- The absorbance, group - Blank (HT 1299; 1st week (LC50), 4 d): 2.4810
- The absorbance (HT 1299; 1st week (LC50), 7 d): 1.504
- The absorbance, group - Blank (HT 1299; 1st week (LC50), 7 d): 1.0771
- The absorbance, Mean value (HT 1299; [1]): 2.0676
- The absorbance, group - Blank (HT 1299; [1]): 1.7954
- The absorbance (HT 1299; XTT 500 nm, 2nd week (recovery), 0 h, single wells): 1.9675 and 1.8392 and 2.3962
- The absorbance, Mean value (HT 1299; [2]): 2.6177
- The absorbance, group - Blank (HT 1299; [2]): 2.3455
- The absorbance (HT 1299; XTT 500 nm, 2nd week (recovery), 24 h, single wells): 2.6918 and 2.5521 and 2.6093
- The absorbance, Mean value (HT 1299; [3]): 2.4695
- The absorbance, group - Blank (HT 1299; [3]): 2.1973
- The absorbance, Mean value (HT 1299; [4]): 2.3404
- The absorbance, group - Blank (HT 1299; [4]): 2.0681
- The absorbance (HT 1299; XTT 500 nm, 2nd week (recovery), 4 d, single wells): 2.6902 and 1.9256 and 2.4054
- The cytotoxicity (HT 1299; human, 0 h): 0.2984
- The viability (HT 1299; human, 0 h): 0.7016
- The cytotoxicity (HT 1299; human, 24 h): 0.1360
- The viability (HT 1299; human, 24 h): 0.8640
- The cytotoxicity (HT 1299; human, 48 h): 0.1139
- The viability (HT 1299; human, 48 h): 0.8861
- The viability (HT 1299; human, 4 d): 0.7007
- The cytotoxicity (HT 1299; human, 7 d): 0.6611
- The absorbance, Mean value (SKBR3; 1st week (LC50), 0 h): 0.3968
- The absorbance, group - Blank (SKBR3; 1st week (LC50), 0 h): 0.2164
- The absorbance (SKBR3; 1st week (LC50), 0 h): 0.4034 and 0.3885 and 0.3985
- The absorbance, Mean value (SKBR3; 1st week (LC50), 12 h): 1.5205
- The absorbance, group - Blank (SKBR3; 1st week (LC50), 12 h): 1.3402
- The absorbance, group - Blank (SKBR3; 1st week (LC50), 24 h): 1.8347
- The absorbance, Mean value (SKBR3; 1st week (LC50), 48 h): 1.6721
- The absorbance, group - Blank (SKBR3; 1st week (LC50), 48 h): 1.4917
- The absorbance (SKBR3; 1st week (LC50), 48 h): 1.6738 and 1.629 and 1.7134
- The absorbance, Mean value (SKBR3; 1st week (LC50), 4 d): 1.1935
- The absorbance (SKBR3; 1st week (LC50), 4 d): 1.2586 and 1.1724 and 1.1494
- The absorbance, Mean value (SKBR3; 1st week (LC50), 7 d): 1.0281
- The absorbance, group - Blank (SKBR3; 1st week (LC50), 7 d): 0.8478
- The absorbance (SKBR3; 1st week (LC50), 7 d): 0.9379 and 0.9708 and 1.1757
- The absorbance, Mean value (SKBR3; 2nd week (recovery), 0 h): 1.0435
- The absorbance, group - Blank (SKBR3; 2nd week (recovery), 0 h): 0.8631
- The absorbance (SKBR3; 2nd week (recovery), 0 h): 1.0568 and 1.0836 and 0.99
- The absorbance, Mean value (SKBR3; 2nd week (recovery), 24 h): 1.1704
- The absorbance, group - Blank (SKBR3; 2nd week (recovery), 24 h): 0.9900
- The absorbance (SKBR3; 2nd week (recovery), 24 h): 1.1654 and 1.3673 and 0.9784
- The absorbance, Mean value (SKBR3; 2nd week (recovery), 48 h): 1.0440
- The absorbance, group - Blank (SKBR3; 2nd week (recovery), 48 h): 0.8636
- The absorbance (SKBR3; 2nd week (recovery), 48 h): 0.9057 and 0.8251 and 1.4012
- The absorbance, Mean value (SKBR3; 2nd week (recovery), 4 d): 1.2517
- The absorbance, group - Blank (SKBR3; 2nd week (recovery), 4 d): 1.0713
- The absorbance (SKBR3; 2nd week (recovery), 4 d): 1.252 and 1.6151 and 0.888
- The absorbance, Mean value (SKBR3; 2nd week (recovery), 7 d): 0.9393
- The absorbance, group - Blank (SKBR3; 2nd week (recovery), 7 d): 0.7590
- The absorbance (SKBR3; 2nd week (recovery), 7 d): 0.7048 and 1.1412 and 0.972
- The cytotoxicity (SKBR3; human, 0 h, 220 nM): −1.4298
- The viability (SKBR3; human, 12 h, 220 nM): 0.7165
- The cytotoxicity (SKBR3; human, 24 h, 220 nM): 0.4771
- The cytotoxicity (SKBR3; human, 48 h, 220 nM): 0.6010
